Laboratory results taken from PubChem BioAssay (NCI).
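Protocol summary: plate cells (96-well), add compound at 5 concentrations, incubate 48 h, interpolate endpoints linearly. Definition used: TGI = concentration required for complete inhibition of growth.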

Assays:
Experiment in all cases: NCI anticancer screen, dose series, 48 h
BT-549 breast = tested on: BT-549 breast
DU-145 prostate = tested on: DU-145 prostate
EKVX NSCLC = tested on: EKVX NSCLC
HL-60(TB) leukemia = tested on: HL-60(TB) leukemia
IGROV1 ovarian = tested on: IGROV1 ovarian
LOX IMVI melanoma = tested on: LOX IMVI melanoma
MCF7 breast = tested on: MCF7 breast
MDA-MB-435 = tested on: MDA-MB-435
MDA-N = tested on: MDA-N
MOLT-4 leukemia = tested on: MOLT-4 leukemia
NCI-H226 lung = tested on: NCI-H226 lung
SF-295 CNS = tested on: SF-295 CNS
SK-MEL-2 melanoma = tested on: SK-MEL-2 melanoma
SK-MEL-5 melanoma = tested on: SK-MEL-5 melanoma
SK-OV-3 ovarian = tested on: SK-OV-3 ovarian
SW-620 colon = tested on: SW-620 colon
TK-10 renal = tested on: TK-10 renal

Row | Compound | TGI (BT-549 breast) [µM] | TGI (DU-145 prostate) [µM] | TGI (EKVX NSCLC) [µM] | TGI (HL-60(TB) leukemia) [µM] | TGI (IGROV1 ovarian) [µM] | TGI (LOX IMVI melanoma) [µM] | TGI (MCF7 breast) [µM] | TGI (MDA-MB-435) [µM] | TGI (MDA-N) [µM] | TGI (MOLT-4 leukemia) [µM] | TGI (NCI-H226 lung) [µM] | TGI (SF-295 CNS) [µM] | TGI (SK-MEL-2 melanoma) [µM] | TGI (SK-MEL-5 melanoma) [µM] | TGI (SK-OV-3 ovarian) [µM] | TGI (SW-620 colon) [µM] | TGI (TK-10 renal) [µM]
1 | C[C@]12[C@@H]3CC[C@H]1[C@@H](OC(=O)Nc1cc([N+](=O)[O-])cc([N+](=O)[O-])c1)C(=O)N2CC3 | > 100 | > 100 | > 100 | > 100 | > 100 | > 100 | > 100 | > 100 | > 100 | > 100 | > 100 | > 100 | > 100 | > 100 | > 100 | > 100 | > 100
2 | O=C(c1ccccc1)c1sc2c(=O)c(C(=O)c3ccccc3)c(C(=O)c3ccccc3)sc2c(=O)c1C(=O)c1ccccc1 | > 100 | > 100 | > 100 | 48.4 | 69.2 | > 100 | > 100 | 70.9 | > 100 | > 100 | > 100 | > 100 | > 100 | > 100 | > 100 | > 100 | > 100
3 | Cc1ccc(S(=O)(=O)Oc2nc3ccccc3nc2N(S(=O)(=O)c2ccc(C)cc2)S(=O)(=O)c2ccc(C)cc2)cc1 | > 100 | > 100 | > 100 | > 100 | > 100 | > 100 | > 100 | > 100 | > 100 | > 100 | > 100 | > 100 | > 100 | > 100 | > 100 | > 100 | > 100
4 | COc1ccc(C(=O)/C=C/c2ccc(OCC(=O)N3CCN(c4ccccc4)CC3)cc2)cc1 | > 77.3 | > 100 | > 90.4 | > 67.3 | > 65.8 | > 100 | > 100 | > 100 | > 100 | > 100 | > 100 | 84.7 | > 100 | > 85.1 | 66 | > 100 | 89.2
5 | O=[N+]([O-])/C(C(Cl)=C(Cl)Cl)=C(/Sc1ccccc1)N1CCCCC1 | > 100 | > 100 | > 100 | > 26.8 | > 100 | > 100 | > 100 | > 100 | > 100 | > 100 | > 100 | > 100 | > 100 | > 88.1 | > 100 | > 100 | > 100
6 | O=C(NC(Nc1ccc(F)c(Cl)c1)(C(F)(F)F)C(F)(F)F)OCc1ccccc1 | 33.6 | > 100 | 83.6 | 40.3 | > 100 | > 100 | 38.1 | > 100 | 56.2 | 89.1 | > 100 | 91.7 | > 100 | > 100 | 74.1 | > 100 | > 100
7 | COc1cc2c(cc1O)[C@@H]1Cc3c(cc(OC)c(OC)c3Oc3cc4c(cc3OC)CCN(C)[C@@H]4Cc3ccc(O)cc3)[C@H](C2)N1C | 96.9 | > 100 | > 100 | 36.6 | > 100 | 37.7 | > 100 | 40.8 | 38.3 | > 90.5 | > 100 | > 100 | 53.3 | 30.1 | > 100 | > 100 | > 100
